Laboratory results taken from patent US20260028390A1, “ALPHA1-ANTITRYPSIN FOR USE IN THE TREATMENT OF DISEASES OR DISORDERS OF THE NERVOUS SYSTEM SUCH AS CHRONIC INFLAMMATORY DEMYELINATING POLYNEUROPATHY” (Ageronix SA, priority 2022, published 2026).
Several values for one entry are separate records, joined by “and”; a condition that tells them apart may be missing. Equal entries are not always repeated.

Legend:
plasma IL-6 = assay: Plasma IL-6, CMT mice treated with AAT 180 mg/kg/day sc; assay type: in vivo, mouse
Description: Animals were received at 6 weeks of age and housed under controlled conditions for the duration of the study. The study comprised two groups of 8 transgenic mice (CMT mice) each and one group of 8 age matched wild type (WT) C57B16 mice, serving as positive control. Animals were assigned to the following subcutaneous treatments twice daily at 7:00 AM and 7:00 PM for 2 weeks, starting from 8 weeks and up to 10 weeks of age: • Wild-type (WT, no disease) mice receiving vehicle, 0.9% NaCl (positive control) • CMT1A mice receiving vehicle, 0.9% NaCl (negative control) • CMT1A mice receiving AAT at 90 mg/kg per injection (daily dose 180 mg/kg)
The efficacy parameters included: • neuromuscular performance (rotarod latency to fall and grip strength test), • sciatic nerve electrophysiology (CMAP amplitude and NCV) • cytokine (IL-6 and TNFα), as well as NfL analysis • sciatic nerve histology (number of axons and axonal diameter),
As supportive information for the mode of action of AAT in CMT, plasma concentration of interleukin 6 (IL-6) and TNFα were measured at Day 1 (8 weeks), Day 15 (10 weeks) and Day 30 (12 weeks). At the same timepoints, plasma levels of the biomarker of nerve damage, NfL were determined.

Microglial (HMC3) cells = assay: IL6 and IL1B gene expression (qPCR) in IFNγ-induced microglia; assay type: cell-based, human; settings: HMC3, IFNγ 10 ng/mL 24 h; AAT 25 μM or peptides 50 μM
Procedure: Microglial (HMC3) cells were seeded into 96-well plates at a density of approximately 2500 cells/well. Plasma derived AAT (Sigma, 25 μM) or peptide 8, peptide 9 or peptide 14 (Syngene, 50 μM) were added, and microglial activation was induced with interferon gamma (IFNγ) (10 ng/mL) for 24 h with no preincubation. Then, the RNA was extracted (RNAeasy mini kit, Qiagen) and the expression of the Interleukin-6 (IL6) and Interleukin-Ibeta (ILIB) genes were analysed. qPCR was performed with Syber green POWER UP master mix using 10 ng/well of cDNA in all gene expression results.

CIDP mice [1] = assay: Sciatic nerve histology, CIDP mouse model; assay type: in vivo
Procedure: (§1) C57BL/6 mice were received at 8 weeks of age and housed under controlled conditions for the duration of the study. Three groups of 4 animals each were assigned to the following subcutaneous treatments twice daily at 7:00 AM and 7:00 PM for 2 weeks, from 20 to 35 days after the start of disease induction: • Wild type (WT) mice receiving the vehicle, 0.9% NaCl (positive control) • CIDP mice receiving the vehicle, 0.9% NaCl (negative control) • CIDP mice receiving human AAT (AAT), 50 mg/kg per injection
(§2) Disease induction consisted in subcutaneous injection of mouse sciatic nerve homogenate in phosphate buffer saline (PBS)+Freund's adjuvant mixture at 10 mL/kg. For each treatment, 3 different body sites injections were performed. Control mice also received three subcutaneous injections of PBS+Freund's adjuvant at the same 3 different body sites.
(§3) On the first (Day 20) and last (Day 35) day of treatment, the neuromuscular and performance of animals was tested with a rotarod test, grip test and a sensory test using the Von Frey filament test, as well as sciatic nerve electrophysiology test. After the last treatment at Day 35, these tests were repeated, animals were sacrificed and the left sciatic nerve was sampled for histological evaluation of the number and size of […].

[2] = tested on: CMT1A mice B6.Cg-Tg(PMP22)C3Fbas/J; assay: Sciatic nerve electrophysiology (CMAP, NCV), CMT mice treated with AAT 180 mg/kg/day sc; assay type: in vivo, mouse; settings: 6 weeks old, CMT + hAAT
CIDP mice [3] = assay: Von Frey test (paw withdrawal threshold), CIDP mouse model; assay type: in vivo; settings: for Von Frey, paw withdrawal threshold (Mean ± SD): CIDP mice; for von Frey test, Paw withdrawal threshold, group MEAN: group mean of 4 animals; for von Frey test, Paw withdrawal threshold, Mean/animal: per animal; for von Frey test, Paw withdrawal threshold, Mean/animal / von Frey test, Paw withdrawal threshold, set 1 / von Frey test, Paw withdrawal threshold, set 2 / von Frey test, Paw withdrawal threshold, set 3: listed as hAAT; for von Frey test, Paw withdrawal threshold, set 1 / von Frey test, Paw withdrawal threshold, set 2 / von Frey test, Paw withdrawal threshold, set 3: raw data per animal
Procedure: as §1, §2, §3

SH-SY5Y cells = assay: Cell viability assay (CCK-8) of SH-SY5Y treated with 6-OHDA; assay type: cell-based; settings: 6-OHDA combined with AAT 25 μM, CCK-8 absorbance 450 nm
Procedure: SH-SY5Y cells, which are commonly used to model neurodegenerative disorders, were used to produce an in vitro Parkinson's model (Que R, et al., 2021, Front. Immunol. 12). Cells were cultured in DMEMF12/Glutamax supplemented with 10% FBS.
Cells were treated for 24 hours with the neurotoxin 6-hydroxydopamine (6-OHDA, Sigma Aldrich 162957) at 50, 100 μM concentrations alone or in combination with AAT 25 μM (AAT plasma derived, Sigma Aldrich batch A9024). Cells treated with AAT alone or in combination with 6-OHDA for 24 hours, were then incubated with fresh AAT for additional 24 hours. Control cells were treated with PBS.
At day 0 cells were plated in equally number in 24-well plate, the day after they were treated as described above, and final total cell count was performed at day 4 of culture (cell growth). Cell viability was assessed with Cell Counting Kit-8 (CCK-8; Sigma Aldrich 96992). After treatments, cells were incubated with 10 μl of CCK-8 solution for 2 hours in the incubator. Absorbance was measured at 450 nm using SpectraMax iD3 Microplate Reader. Experiments were performed in triplicate.

[4] = CIDP mice, day 35, AAT 50 mg/kg sc twice daily

## alpha1-antitrypsin (AAT) protein
Plasma IL-6; 8 weeks old (baseline, Day 1), CMT1A + AAT
  Plasma IL-6 (Mean ± SD): 133.48 ± 31.45 pg/mL
Plasma IL-6; 10 weeks old (Day 15, after 2 weeks AAT 90 mg/kg sc twice daily)
  Plasma IL-6 (Mean ± SD): 69.78 ± 11.76 pg/mL
Plasma IL-6; 12 weeks of age, after 2-week treatment-free period
  positive effect on IL-6 plasma levels: remained significant
Plasma IL-6; 12 weeks old (Day 30, after 2-week treatment-free period)
  Plasma IL-6 (Mean ± SD): 120.90 ± 6.47 pg/mL
Plasma IL-6; CMT mice, AAT 90 mg/kg sc twice a day, P<0.01
  plasma levels of IL-6: reduced
Microglial (HMC3) cells
  IL1B expression reduced by: 60-70%
  IL6 expression reduced by: 30-40%
CIDP mice [1]; CIDP + AAT, day 35
  axonal diameter compared to the CIDP+vehicle treated group: significant increase
  g-ratio compared to the CIDP+vehicle treated group: decrease
  total number of axons per surface compared to the vehicle treated group: Slight but non-significant increase
CIDP mice [1]; [4]
  Sciatic nerve histology, Axonal diameter (Mean ± SEM): 3.82 ± 0.09 μm
  Sciatic nerve histology, Axons/100 μm^2 (Mean ± SEM): 26.00 ± 2.10
  Sciatic nerve histology, g-ratio (Mean ± SEM): 0.715 ± 0.008
[2]; 8 mice
  Amplitude, group MEAN: 6.628 mV
[2]; individual mouse
  Amplitude: 7.828 mV and 3.009 mV and 5.770 mV and 5.919 mV and 7.925 mV and 8.742 mV and 6.803 mV and 7.028 mV
  Conduction velocity: 31.949 m/s and 34.989 m/s and 30.328 m/s and 19.190 m/s and 18.114 m/s and 20.530 m/s and 26.247 m/s and 28.783 m/s
  T1 distal: 7.416 ms and 5.701 ms and 12.428 ms and 5.913 ms and 6.041 ms and 3.664 ms and 4.204 ms and 3.385 ms
  T2 proximal: 7.885 ms and 6.130 ms and 12.922 ms and 6.694 ms and 6.869 ms and 4.395 ms and 4.775 ms and 3.906 ms
CIDP mice [3]; CIDP + AAT 50 mg/kg sc twice daily, Day 35
  threshold of paw withdrawal compared to the vehicle treated group: increased
CIDP mice [3]; Day 20 (baseline)
  Von Frey, paw withdrawal threshold (Mean ± SD): 3.16 ± 0.95 grams
CIDP mice [3]; Day 35, AAT 50 mg/kg sc twice daily
  Von Frey, paw withdrawal threshold (Mean ± SD): 5.71 ± 0.41 grams
CIDP mice [3]; Baseline (Day 20)
  von Frey test, Paw withdrawal threshold, group MEAN: 3.16 grams
  von Frey test, Paw withdrawal threshold, Mean/animal: 4.30 grams and 2.10 grams and 2.74 grams and 3.48 grams
  von Frey test, Paw withdrawal threshold, set 1: 4.6 grams and 2.1 grams and 3.3 grams and 4.5 grams
  von Frey test, Paw withdrawal threshold, set 2: 2.4 grams and 1.8 grams and 2.1 grams and 2.2 grams
  von Frey test, Paw withdrawal threshold, set 3: 6.0 grams and 2.4 grams and 2.8 grams and 3.8 grams
CIDP mice [3]; Day 35
  von Frey test, Paw withdrawal threshold, group MEAN: 5.80 grams
  von Frey test, Paw withdrawal threshold, Mean/animal: 5.60 grams and 5.24 grams and 6.21 grams and 6.14 grams
  von Frey test, Paw withdrawal threshold, set 1: 5.3 grams and 5.9 grams and 7.7 grams and 5.1 grams
  von Frey test, Paw withdrawal threshold, set 2: 5.1 grams and 3.7 grams and 5.3 grams and 7.0 grams
  von Frey test, Paw withdrawal threshold, set 3: 6.4 grams and 6.1 grams and 5.7 grams and 6.3 grams
SH-SY5Y cells
  cell count and viability compared to 6-OHDA treatment alone: significantly enhanced
